Our source for the EC50 values is patent publication US9840481B2, “Allosteric modulators of nicotinic acetylcholine receptors” (MERCK SHARP & DOHME CORP., priority 2016, dated 2017).

Where two headings read alike, the source gives them in different places.

For this experiment, the target named is T1, human α7 nAChR stably expressed in a HEK cell line (with human RIC-3) (Homo sapiens, UniProt P36544).
T1 construct: PrecisION hnAChR α7/RIC-3
In words: Automated patch-clamp electrophysiology functional assay (Assay A), IonFlux HT, whole-cell population patch. The format is cell-based. An outline of the steps: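 Whole-cell population patch clamp (IonFlux HT) used HEK cells stably co-expressing human α7 and RIC-3, held at −60 mV at room temperature. Compounds were applied alone (agonism) or with 40 μM acetylcholine (potentiation), three ascending concentrations per recording. Currents were quantified relative to a 40 μM acetylcholine reference response, giving EC50.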

Where [1] appears, read: automated patch-clamp electrophysiology functional assay (Assay A), potency class by EC50, read-out: α7 nAChR Potency.
Where [2] appears, read: electrophysiology EC50, HEK cells expressing human α7/RIC-3, 40 μM acetylcholine, holding potential −60 mV, room temperature, read-out: α7 nAChR EC50.

T1 sequence (P36544 23-502): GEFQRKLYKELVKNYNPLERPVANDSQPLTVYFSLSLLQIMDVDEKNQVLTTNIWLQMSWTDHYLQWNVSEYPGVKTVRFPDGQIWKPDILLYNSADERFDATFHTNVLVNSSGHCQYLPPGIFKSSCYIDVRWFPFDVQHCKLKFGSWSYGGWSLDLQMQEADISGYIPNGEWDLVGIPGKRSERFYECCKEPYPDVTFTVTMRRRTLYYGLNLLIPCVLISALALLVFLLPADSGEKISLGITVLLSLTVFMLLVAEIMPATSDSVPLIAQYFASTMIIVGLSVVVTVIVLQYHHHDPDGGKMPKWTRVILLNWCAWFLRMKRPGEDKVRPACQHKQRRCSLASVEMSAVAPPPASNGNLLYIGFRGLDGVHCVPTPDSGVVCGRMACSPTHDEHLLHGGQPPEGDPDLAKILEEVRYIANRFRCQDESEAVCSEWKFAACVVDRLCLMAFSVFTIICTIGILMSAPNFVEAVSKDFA

`CC1(C)[C@H](c2ccc(S(N)(=O)=O)cc2)[C@H]1c1nc(-c2cccc(Br)c2)no1` [Example A14]: the EC50 under setting [1] lay in the range of 500 to 5000 nM.

For the compound `NS(=O)(=O)c1ccc([C@@H]2C[C@H]2c2nc(-c3cnccc3C(F)(F)F)no2)cc1` [Example D25], the EC50 under setting [1] is 500 to 5000 nM.

Consider `CC1(C)[C@@H](c2ccc(S(N)(=O)=O)cc2)[C@@H]1c1noc(-c2ccc(OCCF)nc2)n1` [Example I14], for which the EC50 under setting [1] lay within 500 to 5000 nM.

For the compound `CC1(C)[C@H](c2ccc(S(N)(=O)=O)cc2)[C@H]1c1noc(-c2ccccc2)n1` [Example L17], the EC50 under setting [1] was in the range of 100 to 500 nM.

As to `CC1(C)[C@H](c2ccc(S(N)(=O)=O)cc2)[C@H]1c1nc(CC2CC2)no1` [Example B10], the EC50 is, setting by setting: under setting [1], 500 to 5000 nM; under setting [2], 3000 nM.

In the case of `Cn1cc([C@H]2[C@H](c3ccc(S(N)(=O)=O)cc3)C2(C)C)nc1-c1cccc(F)c1` [Example 35, 4-{(1S,3S)-3-[2-(3-Fluorophenyl)-1-methyl-1H-imidazol-4-yl]-2,2-dimethylcyclopropyl}benzenesulfonamide], the EC50 is 500 to 5000 nM under setting [1] and 4400 nM under setting [2].

As for `CC(C)c1nsc(C2CC2c2ccc(S(N)(=O)=O)cc2)n1` (single isomer, unassigned; enantiomer b) [Example 18, 4-{trans-2-[3-(Propan-2-yl)-1,2,4-thiadiazol-5-yl]cyclopropyl}benzenesulfonamide, enantiomer B], the EC50 was 100 to 500 nM under setting [1] and 380 nM under setting [2].

Regarding `Cc1nc([C@@H]2C[C@H]2c2ccc(S(N)(=O)=O)cc2)sc1-c1ccccc1` [Example 16, 4-[(1R,2R)-2-(4-Methyl-5-phenyl-1,3-thiazol-2-yl)cyclopropyl]benzenesulfonamide], the EC50 under setting [1] is not above 100 nM and the EC50 under setting [2] was 98 nM.

With `CC1(C)[C@H](c2ccc(S(N)(=O)=O)cc2)[C@H]1c1nc(-c2ccccc2)no1` [Example A3], under setting [1], the EC50 fell in the range of 500 to 5000 nM.

Regarding `CC1(C)[C@H](c2ccc(S(N)(=O)=O)cc2)[C@H]1c1nc(-c2c(F)cccc2F)no1` [Example A11], the EC50 runs as follows: under setting [1], 500 to 5000 nM; under setting [2], 960 nM.

Turning to `CC1(C)[C@@H](c2ccc(S(N)(=O)=O)cc2)[C@@H]1c1noc(-c2cc(C(F)(F)F)c3ccccc3n2)n1` [Example I13], the EC50 is 500 to 5000 nM under setting [1] and 3100 nM under setting [2].

For the compound `CC1(C)[C@@H](c2ccc(S(N)(=O)=O)cc2)[C@@H]1c1nnc(C2CCCC2)o1` [Example G10], the EC50 runs as follows: under setting [1], 500 to 5000 nM; under setting [2], 630 nM.

Turning to `CC1(C)[C@H](c2ccc(S(N)(=O)=O)cc2)[C@H]1c1nc(C2CCCO2)no1` (stereo partly drawn) [Example B12], under setting [1], the EC50 lay in the range of 5000 to 50000 nM.

Regarding `CC1(C)[C@@H](c2ccc(S(N)(=O)=O)cc2)[C@@H]1c1nc(CC2CC2)no1` [Example D27], the EC50 under setting [1] fell in the range of 100 to 500 nM and the EC50 under setting [2] was 200 nM.

`NS(=O)(=O)c1ccc([C@@H]2C[C@H]2c2nc(-c3ccccc3C(F)(F)F)no2)cc1` [Example C6]: under setting [1], the EC50 lay within 500 to 5000 nM.

`CC1(C)[C@@H](c2ccc(S(N)(=O)=O)cc2)[C@@H]1c1nc(CC(F)(F)F)no1` [Example D14]: the EC50 under setting [1] is 500 to 5000 nM.

With `CC1(C)[C@@H](c2ccc(S(N)(=O)=O)cc2)[C@@H]1c1cn(-c2ccccc2)nn1` [Example L7], the EC50 under setting [1] fell in the range of 500 to 5000 nM.

As to `NS(=O)(=O)c1ccc([C@@H]2C[C@H]2c2cnc(-c3ccccc3)s2)cc1` [Example 27, 4-[(1R,2R)-2-(2-Phenyl-1,3-thiazol-5-yl)cyclopropyl]benzenesulfonamide], the EC50 under setting [1] lay within 500 to 5000 nM and the EC50 under setting [2] was determined as 620 nM.

For `CC(C)(F)c1noc([C@H]2[C@H](c3ccc(S(N)(=O)=O)cc3)C2(F)F)n1` [Example D35], the EC50 is, setting by setting: under setting [1], 100 to 500 nM; under setting [2], 410 nM.

As to `COc1ccc(Cl)cc1-c1noc([C@@H]2C[C@H]2c2ccc(S(N)(=O)=O)cc2)n1` [Example 19, 4-{(1R,2R)-2-[3-(5-Chloro-2-methoxyphenyl)-1,2,4-oxadiazol-5-yl]cyclopropyl}benzenesulfonamide], the EC50 is 500 to 5000 nM under setting [1] and 780 nM under setting [2].

`CC1(C)C(c2ccc(S(N)(=O)=O)cc2)C1c1cc(-c2cccc(F)c2)on1` (racemic) [Example M6]: the EC50 reads like this: under setting [1], 500 to 5000 nM; under setting [2], 2900 nM.

`NS(=O)(=O)c1ccc([C@@H]2C[C@H]2c2noc(-c3cncc(F)c3)n2)cc1` [Example I36]: the EC50 under setting [1] lay in the range of 500 to 5000 nM and the EC50 under setting [2] was 1400 nM.

As for `CC1(C)[C@H](c2ccc(S(N)(=O)=O)cc2)[C@H]1c1nnc(-c2cc(F)ccc2C(F)(F)F)o1` [Example F2], under setting [1], the EC50 is 500 to 5000 nM.

With `CC1(C)[C@H](c2ccc(S(N)(=O)=O)cc2)[C@H]1c1nnc(-c2cccnc2C2CC2)o1` [Example F6], the EC50 under setting [1] fell in the range of 500 to 5000 nM.

As for `NS(=O)(=O)c1ccc([C@@H]2C[C@H]2c2cnc(-c3ccccc3)o2)cc1` [Example L3], the EC50 under setting [1] was 500 to 5000 nM.

`CC1(C)[C@@H](c2ccc(S(N)(=O)=O)cc2)[C@@H]1c1noc(-c2ccccc2)n1` [Example H1]: the EC50 is 100 to 500 nM under setting [1] and 260 nM under setting [2].

With `CC1(C)[C@@H](c2ccc(S(N)(=O)=O)cc2)[C@@H]1c1noc(-c2c(F)cc(F)cc2F)n1` [Example H3], the EC50 reads like this: under setting [1], 100 to 500 nM; under setting [2], 130 nM.

Take `NS(=O)(=O)c1ccc([C@@H]2C[C@H]2c2nc(-c3cnccc3C(F)(F)F)no2)cc1` [Example D22]: the EC50 under setting [1] was in the range of 500 to 5000 nM.

As for `NS(=O)(=O)c1ccc([C@@H]2C[C@H]2c2ncc(-c3ccccc3)o2)cc1` [Example 8, 4-[(1R,2R)-2-(5-Phenyl-1,3-oxazol-2-yl)cyclopropyl]benzenesulfonamide], the EC50 under setting [1] lay within 100 to 500 nM and the EC50 under setting [2] is 500 nM.

In the case of `NS(=O)(=O)c1ccc([C@@H]2C[C@H]2c2nc(-c3cccc(Br)c3)no2)cc1` [Example C10], the EC50 under setting [1] was 500 to 5000 nM.

For the compound `CC1(C)[C@H](c2ccc(S(N)(=O)=O)cc2)[C@H]1c1cn(-c2ccccc2)nn1` [Example 12, 4-[(1R,3R)-2,2-Dimethyl-3-(1-phenyl-1H-1,2,3-triazol-4-yl)cyclopropyl]benzenesulfonamide], the EC50 was 500 to 5000 nM under setting [1] and 910 nM under setting [2].

Regarding `CC1(C)[C@H](c2ccc(S(N)(=O)=O)cc2)[C@H]1c1nc(-c2ccccc2F)co1` [Example J1], the EC50 is, setting by setting: under setting [1], 500 to 5000 nM; under setting [2], 1200 nM.

For `CC1(C)[C@H](c2ccc(S(N)(=O)=O)cc2)[C@H]1c1cc(-c2ccccc2)no1` [Example 11, 4-[(1R,3R)-2,2-Dimethyl-3-(3-phenylisoxazol-5-yl)cyclopropyl]benzenesulfonamide], the EC50 under setting [1] lay in the range of 100 to 500 nM and the EC50 under setting [2] is 460 nM.

For the compound `CC1(C)[C@@H](c2ccc(S(N)(=O)=O)cc2)[C@@H]1c1nnc(-c2ccccc2)o1` [Example G1], the EC50 is, setting by setting: under setting [1], 500 to 5000 nM; under setting [2], 1800 nM.

`CC1(C)[C@@H](c2ccc(S(N)(=O)=O)cc2)[C@@H]1c1nnc(-c2ccccc2)s1` [Example G7]: the EC50 by setting is: under setting [1], 500 to 5000 nM; under setting [2], 1800 nM.

Turning to `CC1(C)[C@@H](c2ccc(S(N)(=O)=O)cc2)[C@@H]1c1cnc(-c2ccccc2)o1` [Example L1], the EC50 under setting [1] is 500 to 5000 nM.

Take `CC1(C)[C@@H](c2ccc(S(N)(=O)=O)cc2)[C@@H]1c1nnc(-c2cccnc2C2CC2)o1` [Example G12]: the EC50 under setting [1] lay in the range of 500 to 5000 nM.

As for `CC(C)c1noc([C@H]2[C@H](c3ccc(S(N)(=O)=O)cc3)C2(F)F)n1` [Example D1], the EC50 is, setting by setting: under setting [1], 100 to 500 nM; under setting [2], 120 nM.

`NS(=O)(=O)c1ccc([C@@H]2C[C@H]2c2nc(-c3ccccc3)co2)cc1` [Example 9, 4-[(1R,2R)-2-(4-Phenyl-1,3-oxazol-2-yl)cyclopropyl]benzenesulfonamide]: the EC50 under setting [1] lay in the range of 100 to 500 nM and the EC50 under setting [2] is 430 nM.

As to `CC1(C)[C@@H](c2ccc(S(N)(=O)=O)cc2)[C@@H]1c1nc(C2CCC2)no1` [Example D7], under setting [1], the EC50 lay in the range of 100 to 500 nM.

Consider `CC1(C)[C@@H](c2ccc(S(N)(=O)=O)cc2)[C@@H]1c1cn(-c2cccc(F)c2)nn1` [Example L6], for which the EC50 by setting is: under setting [1], 500 to 5000 nM; under setting [2], 950 nM.

`CC1(C)[C@@H](c2ccc(S(N)(=O)=O)cc2)[C@@H]1c1noc(-c2cc3sccc3[nH]2)n1` [Example I22]: the EC50 under setting [1] is 5000 to 50000 nM and the EC50 under setting [2] is 5400 nM.

In the case of `CC1(C)[C@@H](c2ccc(S(N)(=O)=O)cc2)[C@@H]1c1noc(CC2CCCO2)n1` (stereo partly drawn) [Example I15], the EC50 under setting [1] lay within 500 to 5000 nM.

Consider `NS(=O)(=O)c1ccc([C@H]2[C@H](c3ncc(C4CCCC4)o3)C2(F)F)cc1` [Example K13], for which the EC50 by setting is: under setting [1], 100 to 500 nM; under setting [2], 390 nM.

For the compound `CC1(C)[C@H](c2ccc(S(N)(=O)=O)cc2)[C@H]1c1nc(-c2cncc(C(F)(F)F)c2)no1` [Example B7], the EC50 reads like this: under setting [1], 500 to 5000 nM; under setting [2], 2800 nM.

As for `Cc1ccc(-c2noc([C@@H]3C[C@H]3c3ccc(S(N)(=O)=O)cc3)n2)cc1` [Example C19], the EC50 runs as follows: under setting [1], 500 to 5000 nM; under setting [2], 510 nM.

Consider `CC1(C)[C@@H](c2ccc(S(N)(=O)=O)cc2)[C@@H]1c1nc(-c2cccnc2C(F)(F)F)no1` [Example D30], for which the EC50 runs as follows: under setting [1], 500 to 5000 nM; under setting [2], 1200 nM.

Consider `CC1(C)C(c2ccc(OS(N)(=O)=O)cc2)C1c1nc(-c2ccccc2)no1` (stereo not drawn) [Example 30, 4-[trans-2,2-Dimethyl-3-(3-phenyl-1,2,4-oxadiazol-5-yl)cyclopropyl]phenyl sulfamate], for which the EC50 reads like this: under setting [1], 500 to 5000 nM; under setting [2], 1400 nM.

On to `CC1(C)[C@@H](c2ccc(S(N)(=O)=O)cc2)[C@@H]1c1nnc(-c2ccccc2C(F)(F)F)o1` [Example G4], for which, under setting [1], the EC50 lay in the range of 500 to 5000 nM.

`NS(=O)(=O)c1ccc([C@@H]2[C@@H](c3nc(C4CCC4)no3)C2(F)F)cc1` [Example B18]: the EC50 is 500 to 5000 nM under setting [1] and 1200 nM under setting [2].
